Data from the SangsterLogP compilation.

Test: method code SF-AS, from PMID: 7312925

Row | logP | Compound
1 | -0.32 | Cc1cc(C)c(N)nn1
2 | -0.3 | Cc1cc(O)c(O)nn1
3 | -1.22 | Cc1cc(OCC(=O)O)c(Cl)nn1
4 | 0.02 | CCOc1cc(=O)c2nncn2[nH]1
5 | -0.21 | Cc1cc(=O)c2nncn2[nH]1
6 | -0.89 | CC(=O)Nc1nnc(C)cc1O
7 | -0.82 | Cc1cc(O)c(Cl)nn1
8 | -0.85 | Cc1cc(O)c(N)nn1
9 | -0.68 | Cc1[nH]n2cnnc2c(=O)c1Br
10 | 0.24 | Cc1cc(O)c(N(C)C)nn1
11 | -1.1 | Cc1[nH]n2cnnc2c(=O)c1N=O
12 | -0.06 | Cc1cc(O)c(N2CCOCC2)nn1
13 | 0.13 | Cc1cc(S)c(N)nn1
14 | 0.93 | Cc1cc(C)c(N/N=C\c2ccccc2)nn1
15 | 0.61 | Cc1cc(C)c(NN(C=O)Cc2ccccc2)nn1
16 | -0.52 | Cc1[nH]n2cnnc2c(=O)c1N
